# Experimental data taken from patent US9522886B2, “Pyridine derivatives” (Hoffmann-La Roche Inc., priority 2012, dated 2016).
# Like-named read-outs stand apart in the source and are kept apart here.
# Assays:
# human CB2 receptors = human CB2 receptors (Homo sapiens (Human), UniProt P34972); test: cAMP assay, CHO cells expressing human CB2 receptors; format: cell-based; details: functional cAMP assay, CHO cells expressing human CB2; read-out: human CB2 EC50
# Procedure: (§1) CHO cells expressing human CB1 or CB2 receptors are seeded 17-24 hours prior to the experiment 50.000 cells per well in a black 96 well plate with flat clear bottom (Corning Costar #3904) in DMEM (Invitrogen No. 31331), 1×HT supplement, with 10% fetal calf serum and incubated at 5% CO2 and 37° C. in a humidified incubator. The growth medium was exchanged with Krebs Ringer Bicarbonate buffer with 1 mM IBMX and incubated at 30° C. for 30 min. Compounds were added to a final assay volume of 100 μl and incubated for 30 min at 30° C. Using the cAMP-Nano-TRF detection kit the assay (Roche Diagnostics) was stopped by the addition of 50 μl lysis reagent (Tris, NaCl, 1.5% Triton X100, 2.5% NP40, 10% NaN3) and 50 μl detection solutions (20 μM mAb Alexa700-cAMP 1:1, and 48 μM Ruthenium-2-AHA-cAMP) and shaken for 2 h at room temperature. The time-resolved energy transfer is measured by a TRF reader (Evotec Technologies GmbH), equipped with a ND:YAG laser as excitation source. The plate is measured twice with the excitation at 355 nm and at the emission with a delay of 100 ns and a gate of 100 ns, total exposure time 10 s at 730 (bandwidth 30 nm) or 645 nm (bandwidth 75 nm), respectively.
# (§2) EC50 values were determined using Activity Base analysis (ID Business Solution, Limited).
# human CB1 receptors = human CB1 receptors (Homo sapiens (Human), UniProt P21554); test: cAMP assay, CHO cells expressing human CB1 receptors; format: cell-based
# human CB1 receptors, sequence (P21554 whole entry): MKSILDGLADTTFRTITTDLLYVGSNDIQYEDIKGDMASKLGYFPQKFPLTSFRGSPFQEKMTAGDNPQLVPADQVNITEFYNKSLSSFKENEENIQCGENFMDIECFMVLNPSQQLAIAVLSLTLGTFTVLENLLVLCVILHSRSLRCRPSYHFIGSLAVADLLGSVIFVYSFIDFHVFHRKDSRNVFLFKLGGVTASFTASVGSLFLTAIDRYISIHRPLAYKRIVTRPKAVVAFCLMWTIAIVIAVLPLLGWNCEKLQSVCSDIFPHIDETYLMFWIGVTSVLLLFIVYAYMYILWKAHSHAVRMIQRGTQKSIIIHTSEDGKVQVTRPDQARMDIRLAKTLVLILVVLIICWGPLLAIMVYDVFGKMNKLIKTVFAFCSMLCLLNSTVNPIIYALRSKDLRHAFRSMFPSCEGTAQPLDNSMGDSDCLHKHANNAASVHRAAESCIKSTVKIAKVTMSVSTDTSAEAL
# Procedure: as §1, §2
# [1] = functional cAMP assay, CHO cells expressing human CB1, read-out: human CB1 EC50
# human CB2 receptors, sequence (P34972 whole entry): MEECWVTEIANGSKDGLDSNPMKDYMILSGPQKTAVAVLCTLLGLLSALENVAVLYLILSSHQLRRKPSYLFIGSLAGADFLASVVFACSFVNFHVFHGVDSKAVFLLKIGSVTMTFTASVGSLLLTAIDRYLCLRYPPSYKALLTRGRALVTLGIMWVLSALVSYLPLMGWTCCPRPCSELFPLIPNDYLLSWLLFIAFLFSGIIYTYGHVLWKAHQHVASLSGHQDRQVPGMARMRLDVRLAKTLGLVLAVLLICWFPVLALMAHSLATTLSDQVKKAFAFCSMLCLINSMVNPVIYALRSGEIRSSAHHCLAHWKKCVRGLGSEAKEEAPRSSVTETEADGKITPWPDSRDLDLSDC
SMILES,EC50 (human CB2 receptors) [nM],EC50 (human CB1 receptors; [1]) [nM],EC50 (human CB1 receptors) [nM]
"CC(C)CSc1nc(C(=O)NC2(CC(N)=O)CS(=O)(=O)C2)ccc1C1CC1 [Example 75, N-[3-(2-Amino-2-oxoethyl)-1,1-dioxothietan-3-yl]-5-cyclopropyl-6-(2-methylpropylsulfanyl)pyridine-2-carboxamide]",15.8,> 10000,
"NC(=O)CC1(NC(=O)c2ccc(N3CC(F)(F)C3)c(OCC3CC3)n2)CCOCC1 [Example 60, 6-Cyclopropylmethoxy-5-(3,3-difluoro-azetidin-1-yl)-pyridine-2-carboxylic acid (4-carbamoylmethyl-tetrahydro-pyran-4-yl)-amide]",2.6,> 10000,
"NC(=O)CC(NC(=O)c1ccc(C2CC2)c(OCC2CC2)n1)C1CCOC1 (centres unmarked) [Example 64, N-[3-Amino-3-oxo-1-(oxolan-3-yl)propyl]-5-cyclopropyl-6-(cyclopropylmethoxy)pyridine-2-carboxamide]",5.2,> 10000,
"NC(=O)CC(NC(=O)c1ccc(C2CC2)c(OCC2CC2)n1)C1CCCCC1 (single isomer, unassigned; (-)) [Example 17, (−)-5-Cyclopropyl-6-cyclopropylmethoxy-pyridine-2-carboxylic acid (2-carbamoyl-1-cyclohexyl-ethyl)-amide]",6.2,> 10000,
"O=C(O)CC1(NC(=O)c2ccc(N3CC(F)(F)C3)c(OCC3CC3)n2)CCC1 [Example 69, 2-[1-[[6-(Cyclopropylmethoxy)-5-(3,3-difluoroazetidin-1-yl)pyridine-2-carbonyl]amino]cyclobutyl]acetic acid]",302,> 10000,
"CNC(=O)CC(CCc1ccccc1)NC(=O)c1ccc(N2CC(F)(F)C2)c(OCC2CC2)n1 (centres unmarked) [Example 8, 6-Cyclopropylmethoxy-5-(3,3-difluoro-azetidin-1-yl)-pyridine-2-carboxylic acid (1-methylcarbamoylmethyl-3-phenyl-propyl)-amide]",301,> 10000,
"CNC(=O)CC1(NC(=O)c2ccc(C3CC3)c(OCC3CC3)n2)COC1 [Example 38, 5-Cyclopropyl-6-cyclopropylmethoxy-pyridine-2-carboxylic acid (3-methylcarbamoylmethyl-oxetan-3-yl)-amide]",101,> 10000,
"NC(=O)CC1(NC(=O)c2ccc(C3CC3)c(Cc3ccc(F)cc3)n2)CN(C(=O)OCc2ccccc2)C1 [Example 74, Benzyl 3-(2-amino-2-oxoethyl)-3-[[5-cyclopropyl-6-[(4-fluorophenyl)methyl]pyridine-2-carbonyl]amino]azetidine-1-carboxylate]",39,> 10000,
"CC(C)(CC(N)=O)NC(=O)c1ccc(N2CC(F)(F)C2)c(OCC2CC2)n1 [Example 48, 6-Cyclopropylmethoxy-5-(3,3-difluoro-azetidin-1-yl)-pyridine-2-carboxylic acid (2-carbamoyl-1,1-dimethyl-ethyl)-amide]",9.2,> 10000,
"NC(=O)CC1(NC(=O)c2ccc(OCC3CC3)c(Cl)n2)COC1 [Example 47, 6-Chloro-5-cyclopropylmethoxy-pyridine-2-carboxylic acid (3-carbamoylmethyl-oxetan-3-yl)-amide]",793,> 10000,
"COC(=O)CC1(NC(=O)c2ccc(C3CC3)c(OCC3CC3)n2)CCN(C(=O)OC(C)(C)C)CC1 [Example 45, 4-[(5-Cyclopropyl-6-cyclopropylmethoxy-pyridine-2-carbonyl)-amino]-4-methoxycarbonylmethyl-piperidine-1-carboxylic acid tert-butyl ester]",237,> 10000,
"CC(C)[C@H](CC(N)=O)NC(=O)c1ccc(C2CC2)c(OCC2CC2)n1 [Example 14, 5-Cyclopropyl-6-cyclopropylmethoxy-pyridine-2-carboxylic acid ((S)-1-carbamoylmethyl-2-methyl-propyl)-amide]",1.5,,
"NC(=O)CC1(NC(=O)c2ccc(C3(F)COC3)c(OCC3CC3)n2)CSC1 [Example 98, N-[3-(2-Amino-2-oxoethyl)thietan-3-yl]-6-(cyclopropylmethoxy)-5-(3-fluorooxetan-3-yl)pyridine-2-carboxamide]",1.2,> 10000,
"NC(=O)[C@H]1CCCC[C@H]1NC(=O)c1ccc(N2CC(F)(F)C2)c(OCC2CC2)n1 [Example 21, (−)-cis-6-Cyclopropylmethoxy-5-(3,3-difluoro-azetidin-1-yl)-pyridine-2-carboxylic acid (2-carbamoyl-cyclohexyl)-amide]",407,> 10000,
"CCCCC(CC(N)=O)NC(=O)c1ccc(C2CC2)c(OCC2CC2)n1 (single isomer, unassigned; (+)) [Example 10, (+)-5-Cyclopropyl-6-cyclopropylmethoxy-pyridine-2-carboxylic acid (1-carbamoylmethyl-pentyl)-amide]",0.3,,
"NC(=O)CC1(NC(=O)c2ccc(N3CC(F)(F)C3)c(OCC3CC3)n2)CCOC1 (centres unmarked) [Example 82, N-[3-(2-Amino-2-oxoethyl)oxolan-3-yl]-6-(cyclopropylmethoxy)-5-(3,3-difluoroazetidin-1-yl)pyridine-2-carboxamide]",1.5,> 10000,
"CC(C)CS(=O)(=O)c1nc(C(=O)NC2(CC(N)=O)COC2)ccc1C1CC1 [Example 36, 5-Cyclopropyl-6-(2-methyl-propane-1-sulfonyl)-pyridine-2-carboxylic acid (3-carbamoylmethyl-oxetan-3-yl)-amide]",255,> 10000,
"NC(=O)CC1(NC(=O)c2ccc(C3(F)COC3)c(OCC3CC3)n2)COC1 [Example 93, N-[3-(2-Amino-2-oxoethyl)oxetan-3-yl]-6-(cyclopropylmethoxy)-5-(3-fluorooxetan-3-yl)pyridine-2-carboxamide]",14.9,> 10000,
"CC(C)[C@@H](CC(N)=O)NC(=O)c1ccc(C2CC2)c(OCC2CC2)n1 [Example 13, 5-Cyclopropyl-6-cyclopropylmethoxy-pyridine-2-carboxylic acid ((R)-1-carbamoylmethyl-2-methyl-propyl)-amide]",5,,
"NC(=O)[C@H]1CCCC[C@@H]1NC(=O)c1ccc(C2CC2)c(OCC2CC2)n1 (stereo in doubt) [Example 16, (−)-trans-5-Cyclopropyl-6-cyclopropylmethoxy-pyridine-2-carboxylic acid (2-carbamoyl-cyclohexyl)-amide]",,172,
"CN1CC(NC(=O)c2ccc(N3CC(F)(F)C3)c(OCC3CC3)n2)CC1=O (centres unmarked) [Example 3, 6-Cyclopropylmethoxy-5-(3,3-difluoro-azetidin-1-yl)-pyridine-2-carboxylic acid (1-methyl-5-oxo-pyrrolidin-3-yl)-amide]",,> 10000,
"NC(=O)CC(NC(=O)c1ccc(N2CC(F)(F)C2)c(OCC2CC2)n1)C1CCOCC1 (single isomer, unassigned; (-)) [Example 58, (−)-6-Cyclopropylmethoxy-5-(3,3-difluoro-azetidin-1-yl)-pyridine-2-carboxylic acid [2-carbamoyl-1-(tetrahydro-pyran-4-yl)-ethyl]-amide]",,> 10000,
"NC(=O)CC(NC(=O)c1ccc(N2CC(F)(F)C2)c(OCC2CC2)n1)C1CCOCC1 (single isomer, unassigned; (+)) [Example 59, (+)-6-Cyclopropylmethoxy-5-(3,3-difluoro-azetidin-1-yl)-pyridine-2-carboxylic acid [2-carbamoyl-1-(tetrahydro-pyran-4-yl)-ethyl]-amide]",,> 10000,
"NC(=O)CC(NC(=O)c1ccc(N2CC(F)(F)C2)c(OCC2CC2)n1)C1CCOCC1 (centres unmarked) [Example 53, 6-Cyclopropylmethoxy-5-(3,3-difluoro-azetidin-1-yl)-pyridine-2-carboxylic acid [2-carbamoyl-1-(tetrahydro-pyran-4-yl)-ethyl]-amide]",,> 10000,
"NC(=O)CC1(NC(=O)c2ccc(N3CC(F)(F)C3)c(OCC3CC3)n2)CSC1 [Example 91, N-[3-(2-Amino-2-oxoethyl)thietan-3-yl]-6-(cyclopropylmethoxy)-5-(3,3-difluoroazetidin-1-yl)pyridine-2-carboxamide]",,> 10000,
"NC(=O)[C@@H]1CCCC[C@@H]1NC(=O)c1ccc(C2CC2)c(OCC2CC2)n1 (stereo in doubt) [Example 15, (+)-cis-5-Cyclopropyl-6-cyclopropylmethoxy-pyridine-2-carboxylic acid (2-carbamoyl-cyclohexyl)-amide]",,,> 10000
"NC(=O)[C@@H]1CCCC[C@@H]1NC(=O)c1ccc(C2CC2)c(OCC2CC2)n1 (relative stereo) [Example 12, 5-Cyclopropyl-6-cyclopropylmethoxy-pyridine-2-carboxylic acid (rel-(1S,2R)-2-carbamoyl-cyclohexyl)-amide]",,,> 10000
"CCCCC(CC(N)=O)NC(=O)c1ccc(C2CC2)c(OCC2CC2)n1 (single isomer, unassigned; (-)) [Example 9, (−)-5-Cyclopropyl-6-cyclopropylmethoxy-pyridine-2-carboxylic acid (1-carbamoylmethyl-pentyl)-amide]",2.1,,
